Test results: PubChem BioAssay AID1259407 (Chemical Carcinogenesis Research Information System (CCRIS), 2018)
Active and inactive are the calls of the source. How the calls were made is not given here.

Tested on: CCRIS mutagenicity, Ames/micronucleus/aberration tests
Experiment: CCRIS mutagenicity studies
[1] = Test System: AMES SALMONELLA TYPHIMURIUM, Strain/Indicator: TA98, Metabolic Activation: NONE, Method: STANDARD PLATE
[2] = Test System: AMES SALMONELLA TYPHIMURIUM, Strain/Indicator: TA100, Metabolic Activation: NONE, Method: STANDARD PLATE
[3] = Test System: AMES SALMONELLA TYPHIMURIUM, Strain/Indicator: TA1535, Metabolic Activation: NONE, Method: STANDARD PLATE
[4] = Test System: AMES SALMONELLA TYPHIMURIUM, Strain/Indicator: TA1537, Metabolic Activation: NONE, Method: STANDARD PLATE
[5] = Test System: AMES SALMONELLA TYPHIMURIUM, Strain/Indicator: TA1538, Metabolic Activation: NONE, Method: STANDARD PLATE
[6] = Test System: AMES SALMONELLA TYPHIMURIUM, Strain/Indicator: TA98, Metabolic Activation: RAT, LIVER, S-9, AROCLOR 1254, Method: STANDARD PLATE
[7] = Test System: AMES SALMONELLA TYPHIMURIUM, Strain/Indicator: TA100, Metabolic Activation: RAT, LIVER, S-9, AROCLOR 1254, Method: STANDARD PLATE
[8] = Test System: AMES SALMONELLA TYPHIMURIUM, Strain/Indicator: TA1535, Metabolic Activation: RAT, LIVER, S-9, AROCLOR 1254, Method: STANDARD PLATE
[9] = Test System: AMES SALMONELLA TYPHIMURIUM, Strain/Indicator: TA1537, Metabolic Activation: RAT, LIVER, S-9, AROCLOR 1254, Method: STANDARD PLATE
[10] = Test System: AMES SALMONELLA TYPHIMURIUM, Strain/Indicator: TA1538, Metabolic Activation: RAT, LIVER, S-9, AROCLOR 1254, Method: STANDARD PLATE
[11] = Test System: AMES SALMONELLA TYPHIMURIUM, Strain/Indicator: TA102, Metabolic Activation: NONE, Method: STANDARD PLATE

O=[N+]([O-])c1c(-c2ccc(Cl)cc2)nc2n1CCS2
mutagenic call [1]: inactive; negative | mutagenic call [2]: active; positive | mutagenic call [3]: inactive; negative | mutagenic call [4]: active; positive | mutagenic call [5]: inactive; negative

C[C@H]1CCCC(=O)CCC/C=C/c2cc(O)cc(O)c2C(=O)O1
mutagenic call (End Point: IN VITRO CHROMOSOMAL ABERRATIONS, Test System: BOVINE LYMPHOCYTES, Metabolic Activation: NONE): active; positive (structural changes) | mutagenic call (End Point: In vitro chromosomal aberrations, Test System: Green monkey kidney (Vero) cells, Metabolic Activation: None): active; positive (structural changes) | mutagenic call (End Point: In vitro chromosomal aberrations, Test System: Monkey kidney Vero cells, Metabolic Activation: None): active; positive | mutagenic call (End Point: In vitro micronucleus, Test System: Green monkey kidney (Vero) cells, Metabolic Activation: None): active; positive | mutagenic call (End Point: In vivo chromosomal aberrations, Test System: Bone marrow cells, Species: Mouse, Strain/Sex: Balb/C/Female, Route: Oral): active; positive (structural changes) (effect diminished by administering clay) | mutagenic call (End Point: In vivo chromosomal aberrations, Test System: Bone marrow erythrocytes, Species: Mouse, Strain/Sex: Balb/C, Route: Intraperitoneal): active; positive (structural changes) | mutagenic call (End Point: In vivo micronucleus, Test System: Bone marrow cells, Species: Mouse, Strain/Sex: Balb/C/Female, Route: Oral): active; positive (effect diminished by administering clay) | mutagenic call (End Point: In vivo micronucleus, Test System: Bone marrow erythrocytes, Species: Mouse, Strain/Sex: Balb/C, Route: Intraperitoneal): active; positive (p<0.05) | mutagenic call (End Point: UDS Monkey kidney Vero cells, Strain/Indicator: Thymidine incorporation, Metabolic Activation: None, Method: Liquid scintillation counting): active; positive. prevented by vitamin e at 25 um. | mutagenic call (Test System: AMES SALMONELLA TYPHIMURIUM, Strain/Indicator: TA98, Metabolic Activation: HAMSTER, LIVER, S-9, AROCLOR 1254, Method: STANDARD PLATE): inactive; negative | mutagenic call [1]: inactive; negative | mutagenic call (Test System: AMES SALMONELLA TYPHIMURIUM, Strain/Indicator: TA98, Metabolic Activation: RAT, LIVER, MICROSOMES, PHENOBARBITAL, Method: STANDARD PLATE): inactive; negative | mutagenic call [6]: inactive; negative | mutagenic call (Test System: AMES SALMONELLA TYPHIMURIUM, Strain/Indicator: TA98, Metabolic Activation: RAT, LIVER, S-9, Method: STANDARD PLATE): inactive; negative | mutagenic call (Test System: AMES SALMONELLA TYPHIMURIUM, Strain/Indicator: TA100, Metabolic Activation: HAMSTER, LIVER, S-9, AROCLOR 1254, Method: STANDARD PLATE): inactive; negative | mutagenic call (Test System: AMES SALMONELLA TYPHIMURIUM, Strain/Indicator: TA100, Metabolic Activation: NONE, Method: PREINCUBATION): inactive; negative | mutagenic call (Test System: AMES SALMONELLA TYPHIMURIUM, Strain/Indicator: TA100, Metabolic Activation: RAT, LIVER, MICROSOMES, PHENOBARBITAL, Method: STANDARD PLATE): inactive; negative | mutagenic call [7]: inactive; negative | mutagenic call (Test System: AMES SALMONELLA TYPHIMURIUM, Strain/Indicator: TA100, Metabolic Activation: RAT, LIVER, S-9, PHENOBARBITAL, Method: PREINCUBATION): inactive; negative | mutagenic call (Test System: AMES SALMONELLA TYPHIMURIUM, Strain/Indicator: TA100, Metabolic Activation: RAT, LIVER, S-9, Method: STANDARD PLATE): inactive; negative; toxicity at 1000 ug/plate | mutagenic call (Test System: AMES SALMONELLA TYPHIMURIUM, Strain/Indicator: TA1535, Metabolic Activation: HAMSTER, LIVER, S-9, AROCLOR 1254, Method: STANDARD PLATE): inactive; negative | mutagenic call [3]: inactive; negative | mutagenic call [8]: inactive; negative | mutagenic call (Test System: AMES SALMONELLA TYPHIMURIUM, Strain/Indicator: TA1535, Metabolic Activation: RAT, LIVER, S-9, Method: STANDARD PLATE): inactive; negative | mutagenic call (Test System: AMES SALMONELLA TYPHIMURIUM, Strain/Indicator: TA1537, Metabolic Activation: HAMSTER, LIVER, S-9, AROCLOR 1254, Method: STANDARD PLATE): inactive; negative | mutagenic call [4]: inactive; negative | mutagenic call [9]: inactive; negative | mutagenic call (Test System: AMES SALMONELLA TYPHIMURIUM, Strain/Indicator: TA1537, Metabolic Activation: RAT, LIVER, S-9, Method: STANDARD PLATE): inactive; negative; toxicity at 500 and 1000 ug/plate | mutagenic call (Test System: AMES SALMONELLA TYPHIMURIUM, Strain/Indicator: TA1538, Metabolic Activation: HAMSTER, LIVER, S-9, AROCLOR 1254, Method: STANDARD PLATE): inactive; negative | mutagenic call [10]: inactive; negative | mutagenic call (Test System: AMES SALMONELLA TYPHIMURIUM, Strain/Indicator: TA1538, Metabolic Activation: RAT, LIVER, S-9, Method: STANDARD PLATE): inactive; negative; toxicity at 1000 ug/plate

CC(Br)Br
mutagenic call [11]: inactive; negative | mutagenic call (Test System: AMES SALMONELLA TYPHIMURIUM, Strain/Indicator: TA2638, Metabolic Activation: NONE, Method: STANDARD PLATE): inactive; negative | mutagenic call (Test System: E. COLI, Strain/Indicator: WP2 (PKM101), Metabolic Activation: NONE, Method: STANDARD PLATE): inactive; negative | mutagenic call (Test System: E. COLI, Strain/Indicator: WP2 UVRA (PKM101), Metabolic Activation: NONE, Method: STANDARD PLATE): inactive; negative

[Pb]
mutagenic call (End Point: IN VIVO MICRONUCLEUS, Test System: PERIPHERAL BLOOD LYMPHOCYTES, Species: HUMAN, Strain/Sex: MALE, Route: PROBABLY INHALATION, Method: 72 HR CONTINUOUS TREATMENT): active; positive | mutagenic call [1]: inactive; negative | mutagenic call (Test System: AMES SALMONELLA TYPHIMURIUM, Strain/Indicator: TA98, Metabolic Activation: RAT, LIVER, S-9, PHENOBARBITAL, Method: STANDARD PLATE): inactive; negative | mutagenic call [11]: active; positive | mutagenic call (Test System: AMES SALMONELLA TYPHIMURIUM, Strain/Indicator: TA102, Metabolic Activation: RAT, LIVER, S-9, PHENOBARBITAL, Method: STANDARD PLATE): inactive; negative | mutagenic call [3]: inactive; negative | mutagenic call (Test System: AMES SALMONELLA TYPHIMURIUM, Strain/Indicator: TA1535, Metabolic Activation: RAT, LIVER, S-9, PHENOBARBITAL, Method: STANDARD PLATE): inactive; negative | mutagenic call [4]: inactive; negative | mutagenic call (Test System: AMES SALMONELLA TYPHIMURIUM, Strain/Indicator: TA1537, Metabolic Activation: RAT, LIVER, S-9, PHENOBARBITAL, Method: STANDARD PLATE): inactive; negative

CN(C)CCNC(=O)c1cccc2c(=O)c3ccccc3[nH]c12
mutagenic call [4]: active; positive

Nc1ccc(Cl)c(C(F)(F)F)c1
mutagenic call [1]: inactive; negative | mutagenic call [6]: inactive; negative | mutagenic call [2]: inactive; negative | mutagenic call [7]: inactive; negative | mutagenic call [3]: inactive; negative | mutagenic call [8]: inactive; negative | mutagenic call [4]: inactive; negative | mutagenic call [9]: inactive; negative | mutagenic call [5]: inactive; negative | mutagenic call [10]: inactive; negative

Cc1c(N=O)c(=O)n(-c2ccccc2)n1C
mutagenic call (Test System: AMES SALMONELLA TYPHIMURIUM, Strain/Indicator: TA97, Metabolic Activation: NONE, Method: STANDARD PLATE): active; positive | mutagenic call (Test System: AMES SALMONELLA TYPHIMURIUM, Strain/Indicator: TA97, Metabolic Activation: RAT, LIVER, S-9, AROCLOR 1254, Method: STANDARD PLATE): active; positive | mutagenic call [1]: active; positive | mutagenic call [6]: active; positive | mutagenic call [2]: active; positive | mutagenic call [7]: active; positive | mutagenic call [11]: active; positive | mutagenic call (Test System: AMES SALMONELLA TYPHIMURIUM, Strain/Indicator: TA102, Metabolic Activation: RAT, LIVER, S-9, AROCLOR 1254, Method: STANDARD PLATE): active; positive | mutagenic call (Test System: AMES SALMONELLA TYPHIMURIUM, Strain/Indicator: TA104, Metabolic Activation: NONE, Method: STANDARD PLATE): active; positive | mutagenic call (Test System: AMES SALMONELLA TYPHIMURIUM, Strain/Indicator: TA104, Metabolic Activation: RAT, LIVER, S-9, AROCLOR 1254, Method: STANDARD PLATE): active; positive

O=[N+]([O-])c1c2ccccc2cc2c3c(ccc12)[C@@H](O)[C@H](O)C=C3
mutagenic call [1]: active; positive | mutagenic call [2]: inactive; negative
